# Test results as given in patent publication US4925855A, “Imidazole derivatives and antimycotics containing them” (CL Pharma Aktiengesellschaft, priority 1986, dated 1990).
# Like-named read-outs stand apart in the source and are kept apart here.
# What was measured:
# Candida tropicalis = test: MIC in serial dilution test, Candida tropicalis; type: cell-based; details: 336 h
# Method: (§1) The antimycotic activities of the compounds were measured by in vitro determination of the minimum inhibitory concentration (MIC) for yeasts, molds and dermatophytes.
# (§2) 6 dermatophytes, 2 yeasts and 4 molds were used for testing with fungi, as follows:
# Candida tropicalis (C.trop.)
# (§3) The minimum inhibitory concentration (MIC) was determined in serial dilution tests in test tubes. The volume of the liquid nutrient medium in each test tube was 4.5 ml.
# (§4) The substances were dissolved in DMSO and diluted with sterile distilled water to 10 concentrations (100, 50, 25, 12.5, 6.25, 3.12, 1.56, 0.78, 0.39 and 0.19 μg/ml). 0.5 ml of each of these dilution steps was added to the liquid nutrient medium. Thus, a constant concentration of solvent in all the nutrient media was ensured, irrespective of the active compound concentration.
# (§5) A comparison solution which contained only the solvent in appropriate concentration was included when carrying out each of the tests.
# (§6) The individual strains were maintained on Sabouraud/beerwort agar slants and, before they were used in a test, they underwent a passage on a modified Sabouraud liquid nutrient medium. The strains were then harvested, washed and converted into a suspension of McFaerland 3 in the case of yeasts and molds and of McFaerland 4-5 in the case of dermatophytes.
# (§7) The amount of material inoculated (inoculum) was 100 μl/test tube (inoculated densities: yeasts […] of the liquid nutrient medium was 6.0. After inoculation had taken place the fungi were incubated at 22° C. for 14 days.
# (§8) The MIC was then determined. The concentration step at which growth was no longer visible on macroscopic inspection was used for the determination of the MIC. The comparison substance used was 1-(2-(2,4-dichlorophenyl)-2-(2,4-dichlorophenylmethoxy)ethyl)-1H-imidazoleas nitrate (compound A).
# Candida albicans = test: MIC in serial dilution test, Candida albicans; type: cell-based; details: 336 h
# Method: as §1, §2
# Candida albicans (C.alb.)
# as §3, §4, §5, §6, §7, §8
# Microsporum gypseum = test: MIC in serial dilution test, Microsporum gypseum; type: cell-based; details: Nannizzia gypsea, 336 h
# Method: as §1, §2
# Microsporum gypseum (Mi.gyp.)
# as §3, §4, §5, §6, §7, §8
# Aspergillus fumigatus = test: MIC in serial dilution test, Aspergillus fumigatus; type: cell-based
# Method: as §1, §2
# Aspergillus fumigatus (Asp.fu.)
# as §3, §4, §5, §6, §7, §8
# [1] = Determination of the LD50 in mice by i.v. administration; type: in vivo; details: 12.5-100 mg/kg
# Method: (§9) Determination of the LD50 of 1-(2-(2,4-di-chlorophenyl)-2-(3-(4-chlorophenylthio)propylamino)-ethyl)-1H-imidazole dihydrochloride (compound No. 19) in mice and rats by i.v. administration. In each case, 0 (0.9% NaCl solution), 12.5, 25.0, 50.0 and 100 mg/kg of body weight were injected i.v. into 5 groups of female and male animals.
# [2] = Determination of the lethal dose in rats, single oral administration; type: in vivo; details: for LD100: oral, administration once
# Method: (§10) Determination of the lethal dose of 1-(2-(2,4-dichlorophenyl)-2-(3-(4-chlorophenylthio)propylamino)ethyl)-1H-imidazole dihydrochloride (compound No. 19) in mice and rats on administration once.
# (§11) In each case, oral doses of 0, 500, 1,000 and 3,000 mg/kg of body weight were administered to four groups of female and male animals.
# [3] = Determination of the LD50 in rats by i.v. administration; type: in vivo; details: 12.5-100 mg/kg
# Method: as §9
# [4] = test system: Salmonella typhimurium strains TA 1535, TA 1537, TA 1538, TA 98 and TA 100; test: Potential to cause gene mutations in Salmonella typhimurium; type: cell-based; details: with or without metabolic activator (S 9 mix); 10-1,000 and 3.3-333.3 μg/plate
# Method: Compound No. 19 was investigated for its potential to cause gene mutations in five Salmonella typhimurium strains TA 1535, TA 1537, TA 1538, TA 98 and TA 100.
# The following concentrations were tested, both with metabolic activator (S 9 mix) and without metabolic activator.
# [5] = Determination of the lethal dose in mice, single oral administration; type: in vivo; details: for LD100: oral, administration once
# Method: as §10, §11
# Mucor mucedo minus = test: MIC in serial dilution test, Mucor mucedo minus; type: cell-based; details: 336 h, pH 6, Mucor mucedo minus, pH 6.0, 22° C., 14 days, read-out: MIC values, Mu. mu-
# Method: as §1, §2
# Mucor mucedo minus (Mu.mu^-)
# as §3, §4, §5, §6, §7, §8
# Trichophyton verrucosum = test: MIC in serial dilution test, Trichophyton verrucosum; type: cell-based; details: 336 h, pH 6, Trichophyton verrucosum, pH 6.0, 22° C., 14 days, read-out: MIC values, Tri. ve.
# Method: as §1, §2
# Trichophyton verrucosum (Tri.ve.)
# as §3, §4, §5, §6, §7, §8
# Trichophyton rubrum = test: MIC in serial dilution test, Trichophyton rubrum; type: cell-based; details: 336 h, pH 6, Trichophyton rubrum, pH 6.0, 22° C., 14 days, read-out: MIC values, Tri. ru.
# Method: as §1, §2
# Trichophyton rubrum (Tri.ru.)
# as §3, §4, §5, §6, §7, §8
# Absidia ramosa = test: MIC in serial dilution test, Absidia ramosa; type: cell-based; details: Lichtheimia ramosa, 336 h, pH 6, Absidia ramosa; pH 6.0, 22° C., 14 days; read-out: MIC values, Abs. ra.
# Method: as §1, §2
# Absidia ramosa (Abs.ra.)
# as §3, §4, §5, §6, §7, §8
# Mucor mucedo plus = test: MIC in serial dilution test, Mucor mucedo plus; type: cell-based; details: 336 h, pH 6, Mucor mucedo plus, pH 6.0, 22° C., 14 days, read-out: MIC values, Mu. mu+
# Method: as §1, §2
# Mucor mucedo plus (Mu.mu^+)
# as §3, §4, §5, §6, §7, §8
# Microsporum canis = test: MIC in serial dilution test, Microsporum canis; type: cell-based; details: 336 h, pH 6, Microsporum canis, pH 6.0, 22° C., 14 days, read-out: MIC values, Mi. can
# Method: as §1, §2
# Microsporum canis (Mi.can.)
# as §3, §4, §5, §6, §7, §8
# [6] = test system: Trichophyton mentagrophytes; test: MIC in serial dilution test, Trichophyton mentagrophytes; type: cell-based; details: 336 h, pH 6, Trichophyton mentagrophytes, pH 6.0, 22° C., 14 days, read-out: MIC values, Tri. me.
# Method: as §1, §2
# Trichophyton mentagrophytes
# as §3, §4, §5, §6, §7, §8
# Epidermophyton floccosum = test: MIC in serial dilution test, Epidermophyton floccosum; type: cell-based; details: 336 h, pH 6, Epidermophyton floccosum, pH 6.0, 22° C., 14 days, read-out: MIC values, Ep. flo
# Method: as §1, §2
# Epidermophyton floccosum
# as §3, §4, §5, §6, §7, §8
# [7] = oral, 500, 1,000 and 3,000 mg/kg
# [8] = pH 6, Candida tropicalis, pH 6.0, 22° C., 14 days, read-out: MIC values, C. trop
# [9] = pH 6.0, 22° C., 14 days, read-out: MIC values, C. alb
# [10] = Microsporum gypseum, pH 6.0, 22° C., 14 days, read-out: MIC values, Mi. gyp
smiles,measurement,setting,value
"Clc1ccc(COC(Cn2ccnc2)c2ccc(Cl)cc2Cl)c(Cl)c1 (stereo not shown) [A, 1-(2-(2,4-dichlorophenyl)-2-(2,4-dichlorophenylmethoxy)ethyl)-1H-imidazole, reference compound]",MIC,"Candida tropicalis; pH 6, read-out: MIC values, C. trop",12.5 mg/L
same,MIC,"Candida albicans; pH 6, read-out: MIC values, C. alb",12.5 mg/L
same,MIC,"Microsporum gypseum; pH 6, read-out: MIC values, Mi. gyp",3.12 mg/L
same,"MIC values, Asp. fu.","Aspergillus fumigatus; Aspergillus fumigatus, pH 6.0, 22° C., 14 days","3,12 μg/ml"
"Cl.Cl.Clc1ccc(SCCCNC(Cn2ccnc2)c2ccc(Cl)cc2Cl)cc1 (stereo not shown) [Compound No. 19, 1-(2-(2,4-dichlorophenyl)-2-(3-(4-chlorophenylthio)propylamino)ethyl)-1H-imidazole dihydrochloride]",clinical signs,[1],"Inactivity, necrotic tail"
same,LD100,[2]; female,> 500 mg/kg
same,LD100,[2]; male,"> 1,000 mg/kg"
same,clinical signs,[2]; [7],"Inactivity, ruffled fur, convulsions"
same,clinical signs,[3],"Inactivity, necrotic tail, convulsions"
same,mutagenic activity,[4],No mutagenic activity whatever was observed
same,"MIC values, Asp. fu.","Aspergillus fumigatus; 20160 min, pH 6","0,78 μg/ml"
same,LD100,[5]; female,"> 1,000 mg/kg"
same,LD100,[5]; male,> 500 mg/kg
same,clinical signs,[5]; [7],"Inactivity, convulsions"
Clc1ccc(SCCNC(Cn2ccnc2)c2ccc(Cl)cc2Cl)cc1 (stereo not shown) [compound 3],"MIC values, Asp. fu.","Aspergillus fumigatus; 20160 min, pH 6","6,25 μg/ml"
Clc1ccc(C(Cn2ccnc2)NCCSc2ccc(Br)cc2)c(Cl)c1 (stereo not shown) [compound 4],"MIC values, Asp. fu.","Aspergillus fumigatus; 20160 min, pH 6","6,25 μg/ml"
COc1ccc(SCCNC(Cn2ccnc2)c2ccc(Cl)cc2Cl)cc1 (stereo not shown) [compound 5],"MIC values, Asp. fu.","Aspergillus fumigatus; 20160 min, pH 6","12,5 μg/ml"
Clc1ccc(C(Cn2ccnc2)NCCSc2ccc3ccccc3c2)c(Cl)c1 (stereo not shown) [compound 6],MIC,Mucor mucedo minus,12.5 mg/L
Clc1ccc(SCCCNC(Cn2ccnc2)c2ccc(Br)cc2)cc1 (stereo not shown) [compound 11],"MIC values, Asp. fu.","Aspergillus fumigatus; 20160 min, pH 6","6,25 μg/ml"
Clc1ccc(SCCNC(Cn2ccnc2)c2ccc(-c3ccccc3)cc2)cc1 (stereo not shown) [compound 14],MIC,Candida tropicalis; [8],12.5 mg/L
same,MIC,Mucor mucedo minus,6.25 mg/L
same,MIC,Trichophyton verrucosum,0.78 mg/L
same,MIC,Candida albicans; [9],12.5 mg/L
same,MIC,Trichophyton rubrum,1.56 mg/L
same,MIC,Microsporum gypseum; [10],3.12 mg/L
same,MIC,Absidia ramosa,50 mg/L
same,MIC,Mucor mucedo plus,6.25 mg/L
same,MIC,Microsporum canis,6.25 mg/L
same,MIC,[6],0.78 mg/L
same,"MIC values, Asp. fu.","Aspergillus fumigatus; 20160 min, pH 6","3,12 μg/ml"
same,MIC,Epidermophyton floccosum,0.78 mg/L
Clc1ccc(C(Cn2ccnc2)NCCCSc2ccccc2)c(Cl)c1 (stereo not shown) [compound 16],"MIC values, Asp. fu.","Aspergillus fumigatus; 20160 min, pH 6","3,12 μg/ml"
Cc1ccc(SCCCNC(Cn2ccnc2)c2ccc(Cl)cc2Cl)cc1 (stereo not shown) [compound 17],"MIC values, Asp. fu.","Aspergillus fumigatus; 20160 min, pH 6","0,78 μg/ml"
Fc1ccc(SCCCNC(Cn2ccnc2)c2ccc(Cl)cc2Cl)cc1 (stereo not shown) [compound 18],MIC,Candida tropicalis; [8],6.25 mg/L
same,MIC,Mucor mucedo minus,12.5 mg/L
same,MIC,Trichophyton verrucosum,0.39 mg/L
same,MIC,Candida albicans; [9],12.5 mg/L
same,MIC,Trichophyton rubrum,0.78 mg/L
same,MIC,Microsporum gypseum; [10],3.12 mg/L
same,MIC,Absidia ramosa,6.25 mg/L
same,MIC,Mucor mucedo plus,12.5 mg/L
same,MIC,Microsporum canis,6.25 mg/L
same,MIC,[6],6.25 mg/L
same,"MIC values, Asp. fu.","Aspergillus fumigatus; 20160 min, pH 6","12,5 μg/ml"
same,MIC,Epidermophyton floccosum,3.12 mg/L
"Clc1ccc(SCCCNC(Cn2ccnc2)c2ccc(Cl)cc2Cl)cc1 (stereo not shown) [compound 20, 1-(2-(2,4-Dichlorophenyl)-2-(3-(4-chlorophenylthio)-propylamino)ethyl)-1H-imidazole]","MIC values, Asp. fu.","Aspergillus fumigatus; 20160 min, pH 6","3,12 μg/ml"
"Clc1ccc(C(Cn2ccnc2)NCCCSc2ccc(Br)cc2)c(Cl)c1 (stereo not shown) [compound 23, 1-(2-(2,4-dichlorophenyl)-2-(3-(4-bromophenylthio)propylamino)ethyl)-1H-imidazole]",MIC,Candida tropicalis; [8],1.56 mg/L
same,MIC,Microsporum canis,1.56 mg/L
same,"MIC values, Asp. fu.","Aspergillus fumigatus; 20160 min, pH 6","1,56 μg/ml"
Clc1ccc(C(Cn2ccnc2)NCCCSc2ccc(Br)cc2)c(Cl)c1 (stereo not shown) [compound 24],"MIC values, Asp. fu.","Aspergillus fumigatus; 20160 min, pH 6","0,39 μg/ml"
Clc1ccc(C(Cn2ccnc2)NCCCSc2c(Cl)cccc2Cl)c(Cl)c1 (stereo not shown) [compound 26],"MIC values, Asp. fu.","Aspergillus fumigatus; 20160 min, pH 6","12,5 μg/ml"
Clc1ccc(C(Cn2ccnc2)NCCCSc2ccc3ccccc3c2)c(Cl)c1 (stereo not shown) [compound 27],"MIC values, Asp. fu.","Aspergillus fumigatus; 20160 min, pH 6","0,78 μg/ml"
Clc1ccc(SCCCNC(Cn2ccnc2)c2cccs2)cc1 (stereo not shown) [compound 31],MIC,Candida tropicalis; [8],25 mg/L
same,MIC,Mucor mucedo minus,12.5 mg/L
same,MIC,Trichophyton verrucosum,3.12 mg/L
same,MIC,Candida albicans; [9],12.5 mg/L
same,MIC,Trichophyton rubrum,3.12 mg/L
same,MIC,Microsporum gypseum; [10],6.25 mg/L
same,MIC,Absidia ramosa,2.5 mg/L
same,MIC,Mucor mucedo plus,12.5 mg/L
same,MIC,Microsporum canis,25 mg/L
same,MIC,[6],12.5 mg/L
same,"MIC values, Asp. fu.","Aspergillus fumigatus; 20160 min, pH 6","12,5 μg/ml"
same,MIC,Epidermophyton floccosum,3.12 mg/L
"CN(CCCSCc1ccc(Cl)cc1)C(Cn1ccnc1)c1ccc(Cl)cc1Cl (stereo not shown) [compound 36, 1-(2-(2,4-Dichlorophenyl)-2-(N-methyl-3-(4-chlorobenzylthio)propylamino)ethyl)-1H-imidazole]","MIC values, Asp. fu.","Aspergillus fumigatus; 20160 min, pH 6","25,0 μg/ml"
Clc1ccc(SCCCCCNC(Cn2ccnc2)c2ccc(Cl)cc2Cl)cc1 (stereo not shown) [compound 38],"MIC values, Asp. fu.","Aspergillus fumigatus; 20160 min, pH 6","6,25 μg/ml"
Clc1ccc(SCCCNC(Cn2ccnc2)c2cccc3ccccc23)cc1 (stereo not shown) [compound 41],"MIC values, Asp. fu.","Aspergillus fumigatus; 20160 min, pH 6","3,12 μg/ml"
